Measured values: PubChem BioAssay (NCI)
Values joined by “and” are separate entries in the source; they are usually repeats but may differ in a detail not shown here. Equal values may be shown once.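 96-well plates; 48 h exposure; 5 concentrations. Endpoints by linear interpolation between flanking doses. Not reached: highest tested concentration assigned. GI50 = concentration required for 50% inhibition of growth. TGI: concentration producing complete growth inhibition.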

Columns and labels:
Assay in all cases: growth of human tumour cells (NCI), 48 h
A498 renal = system: A498 renal
LOX IMVI melanoma = system: LOX IMVI melanoma
EKVX NSCLC = system: EKVX NSCLC
U251 CNS = system: U251 CNS
COLO 205 colon = system: COLO 205 colon
SK-MEL-5 melanoma = system: SK-MEL-5 melanoma
SK-OV-3 ovarian = system: SK-OV-3 ovarian
TK-10 renal = system: TK-10 renal
CCRF-CEM leukemia = system: CCRF-CEM leukemia
NCI-H460 lung = system: NCI-H460 lung

| Structure (SMILES) | TGI (A498 renal) | TGI (LOX IMVI melanoma) | TGI (EKVX NSCLC) | TGI (U251 CNS) | TGI (COLO 205 colon) | TGI (SK-MEL-5 melanoma) | TGI (SK-OV-3 ovarian) | TGI (TK-10 renal) | TGI (CCRF-CEM leukemia) | TGI (NCI-H460 lung) | GI50 (LOX IMVI melanoma) | GI50 (EKVX NSCLC) | GI50 (U251 CNS) | GI50 (SK-OV-3 ovarian) | GI50 (TK-10 renal) | GI50 (CCRF-CEM leukemia) | GI50 (A498 renal) | GI50 (COLO 205 colon) | GI50 (SK-MEL-5 melanoma) | GI50 (NCI-H460 lung) |
| --- | --- | --- | --- | --- | --- | --- | --- | --- | --- | --- | --- | --- | --- | --- | --- | --- | --- | --- | --- | --- |
| CN=C(N)/N=C(\N)Nc1cc2ccccc2c2ccccc12 | 23.3 µM | 29.7 µM | 31.8 µM | 28.5 µM | 28.2 µM | 30.6 µM | 32.9 µM | 26 µM | 26.1 µM | 24.4 µM |  |  |  |  |  |  |  |  |  |  |
| COc1cc(NC(=O)CSc2nc3ccccc3c(=O)n2CCc2ccccc2)cc(OC)c1OC |  | > 100 µM | > 100 µM | 5.2 µM |  |  | 3.69 µM | 3.81 µM | > 100 µM |  | 4.11 µM | 4.8 µM | 2.1 µM | 1.93 µM | 1.81 µM | > 100 µM |  |  |  |  |
| CC(=O)N1CC(=O)NC1=S |  | > 100 µM | > 100 µM | > 100 µM | > 100 µM | > 100 µM | > 100 µM | > 100 µM | > 100 µM |  |  |  |  |  |  |  |  |  |  |  |
| O=C(Nc1cccc([N+](=O)[O-])c1)C(=O)C(C(=O)c1ccccc1F)C1OC(=O)C2C=CC=CC21 (stereo not given) | > 100 µM | 51.7 µM | > 100 µM | 77.7 µM | > 100 µM | > 100 µM | > 100 µM | > 100 µM | > 100 µM | > 100 µM |  |  |  |  |  |  |  |  |  |  |
| C/C=C1/CN2CCC34c5ccccc5N(C)C23C2CC1C4(C(=O)OC)C(O)O2 (stereo not given) | > 100 µM | > 100 µM | > 100 µM | > 100 µM | > 100 µM | > 100 µM | > 100 µM | > 100 µM | > 100 µM | > 100 µM |  |  |  |  |  |  |  |  |  |  |
| COc1c(O)c(O)c2c(c1O)C(=O)c1cc(C)cc(O)c1C2=O | > 100 µM | > 100 µM | > 100 µM | > 100 µM | 93.2 µM | > 100 µM | > 80 µM | > 100 µM | > 100 µM | > 78 µM |  |  |  |  |  |  |  |  |  |  |
| N#CCCOCN(CO)c1nc(N(CO)COCCC#N)nc(N(CO)COCCC#N)n1 | > 100 µM | > 100 µM | 93.7 µM | > 100 µM | 32.3 µM |  | > 100 µM | 91.2 µM | 58 µM | 81.3 µM |  |  |  |  |  |  |  |  |  |  |
| c1ccc(CCN2CCOCC2)nc1 | > 100 µM | > 100 µM | > 100 µM | > 100 µM | > 100 µM | > 100 µM | > 100 µM | > 100 µM | > 100 µM | > 100 µM |  |  |  |  |  |  |  |  |  |  |
| Nc1cccc2c1C1=NNC(=O)CC1C2 (stereo not given) | > 100 µM | > 100 µM | > 100 µM | > 100 µM | > 100 µM | > 100 µM | > 100 µM |  | > 100 µM | > 100 µM |  |  |  |  |  |  |  |  |  |  |
| O=C(NCCNc1nccc(-c2c(-c3cccc(O)c3)nc3sccn23)n1)Nc1cccc(C(F)(F)F)c1 | 32.6 µM | 26.2 µM | 36.6 µM | 23.6 µM | 12 µM | 8.43 µM |  | 11.1 µM | 13.7 µM | 20.8 µM | 4.05 µM | 4.16 µM | 4.95 µM |  | 3.66 µM | 3.25 µM | 7.33 µM | 3.36 µM | 2.62 µM | 4.79 µM |
| Cc1c2cc[n+](C)cc2c(C)c2c1[nH]c1ccc(Cl)cc12 | 1.4 µM | 77.8 µM | 14.1 µM | 1.15 µM | 10.9 µM | 5.99 µM | 53.3 µM | 61.3 µM | 26.5 µM | 54 µM |  |  |  |  |  |  |  |  |  |  |
| CCOC(=O)C(=O)Nc1c(CC)cccc1C(C)CC (stereo not given) | > 100 µM | > 100 µM | > 100 µM | > 100 µM | > 100 µM | > 100 µM | > 100 µM | > 100 µM | > 100 µM | > 100 µM |  |  |  |  |  |  |  |  |  |  |
| C=Cc1cc(OC)c2c(c1)c(=O)oc1c2cc(OC)c2c(O)ccc(C3OC(C)C(O)C(C)(O)C3O)c21 (stereo not given) |  |  |  |  | 0.409 µM |  |  | 0.00855 µM |  | 0.00652 µM and 0.0584 µM | 0.000281 µM | 0.000589 µM | 0.000187 µM | 0.000565 µM |  | 1.29e-05 µM | 0.00121 µM |  |  | 0.000484 µM |
| CNS(=O)(=O)c1ccc2[nH]c(O)c(C3=Nc4ccccc4C3=O)c2c1 | > 100 µM | > 100 µM | > 100 µM | 39.8 µM | > 100 µM | > 100 µM | > 100 µM | > 100 µM | > 100 µM | > 100 µM |  |  |  |  |  |  |  |  |  |  |
| NC(=O)Nc1ccc(C(=O)NCCCNC(=O)c2ccc(NC(N)=O)cc2)cc1 | > 100 µM | > 100 µM | > 100 µM | > 100 µM | > 100 µM | > 100 µM |  | > 100 µM | > 100 µM | > 100 µM |  |  |  |  |  |  |  |  |  |  |
